Legend:
[1] = molecular target: Ribosomal protein S6 kinase alpha-3 (Homo sapiens) (UniProt P51812)
[2] = molecular target: Serine/threonine-protein kinase 25 (Homo sapiens) (UniProt O00506)
[3] = molecular target: Calcium/calmodulin-dependent protein kinase type II subunit delta (Homo sapiens) (UniProt Q13557)
[4] = molecular target: TRAF2 and NCK-interacting protein kinase (Homo sapiens) (UniProt Q9UKE5)
[5] = molecular target: Serine/threonine-protein kinase pim-3 (Homo sapiens) (UniProt Q86V86)
[6] = molecular target: Serine/threonine-protein kinase PLK1 (Homo sapiens) (UniProt P53350)
[7] = molecular target: Calcium/calmodulin-dependent protein kinase type 1G (Homo sapiens) (UniProt Q96NX5)
[8] = molecular target: Serine/threonine-protein kinase pim-2 (Homo sapiens, UniProt Q9P1W9)
[9] = molecular target: T1, Calcium/calmodulin-dependent protein kinase type IV (Homo sapiens) (UniProt Q16566)
T1 sequence (whole entry): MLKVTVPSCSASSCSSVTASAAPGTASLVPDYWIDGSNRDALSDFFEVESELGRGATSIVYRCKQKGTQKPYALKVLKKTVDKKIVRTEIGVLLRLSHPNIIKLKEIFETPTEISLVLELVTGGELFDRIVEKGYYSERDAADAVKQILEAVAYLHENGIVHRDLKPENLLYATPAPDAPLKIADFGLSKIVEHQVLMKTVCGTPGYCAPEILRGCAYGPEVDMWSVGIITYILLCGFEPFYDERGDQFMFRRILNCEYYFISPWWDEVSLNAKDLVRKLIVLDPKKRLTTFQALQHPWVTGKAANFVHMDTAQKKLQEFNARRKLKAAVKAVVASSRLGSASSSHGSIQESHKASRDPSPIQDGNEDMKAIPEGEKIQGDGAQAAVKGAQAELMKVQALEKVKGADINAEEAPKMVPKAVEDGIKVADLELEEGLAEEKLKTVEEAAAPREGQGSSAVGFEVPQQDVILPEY

[10] = molecular target: Serine/threonine-protein kinase 16 (Homo sapiens) (UniProt O75716)
[11] = molecular target: T2, Myotonin-protein kinase (Homo sapiens) (UniProt Q09013)
T2 sequence (whole entry): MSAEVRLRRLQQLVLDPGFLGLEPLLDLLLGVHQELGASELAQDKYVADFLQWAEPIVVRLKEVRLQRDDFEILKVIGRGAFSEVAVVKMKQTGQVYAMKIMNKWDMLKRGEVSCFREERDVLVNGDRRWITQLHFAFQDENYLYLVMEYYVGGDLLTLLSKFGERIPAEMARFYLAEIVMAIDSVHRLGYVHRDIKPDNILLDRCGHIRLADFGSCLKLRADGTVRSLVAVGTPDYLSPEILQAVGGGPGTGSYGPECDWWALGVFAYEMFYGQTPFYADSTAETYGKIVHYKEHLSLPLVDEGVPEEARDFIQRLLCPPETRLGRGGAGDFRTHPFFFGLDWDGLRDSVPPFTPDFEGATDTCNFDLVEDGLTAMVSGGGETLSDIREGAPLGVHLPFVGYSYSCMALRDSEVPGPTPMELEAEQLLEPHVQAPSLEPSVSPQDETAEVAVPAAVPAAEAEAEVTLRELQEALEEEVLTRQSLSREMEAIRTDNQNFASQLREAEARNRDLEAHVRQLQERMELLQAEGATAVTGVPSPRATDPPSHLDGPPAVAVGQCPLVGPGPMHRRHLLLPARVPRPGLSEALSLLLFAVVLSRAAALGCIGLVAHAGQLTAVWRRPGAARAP

[12] = molecular target: Serine/threonine-protein kinase RIO2 (Homo sapiens) (UniProt Q9BVS4)
[13] = molecular target: Calcium/calmodulin-dependent protein kinase type II subunit alpha (Homo sapiens) (UniProt Q9UQM7)
[14] = molecular target: T3, 3-phosphoinositide-dependent protein kinase 1 (Homo sapiens) (UniProt O15530)
T3 sequence (whole entry): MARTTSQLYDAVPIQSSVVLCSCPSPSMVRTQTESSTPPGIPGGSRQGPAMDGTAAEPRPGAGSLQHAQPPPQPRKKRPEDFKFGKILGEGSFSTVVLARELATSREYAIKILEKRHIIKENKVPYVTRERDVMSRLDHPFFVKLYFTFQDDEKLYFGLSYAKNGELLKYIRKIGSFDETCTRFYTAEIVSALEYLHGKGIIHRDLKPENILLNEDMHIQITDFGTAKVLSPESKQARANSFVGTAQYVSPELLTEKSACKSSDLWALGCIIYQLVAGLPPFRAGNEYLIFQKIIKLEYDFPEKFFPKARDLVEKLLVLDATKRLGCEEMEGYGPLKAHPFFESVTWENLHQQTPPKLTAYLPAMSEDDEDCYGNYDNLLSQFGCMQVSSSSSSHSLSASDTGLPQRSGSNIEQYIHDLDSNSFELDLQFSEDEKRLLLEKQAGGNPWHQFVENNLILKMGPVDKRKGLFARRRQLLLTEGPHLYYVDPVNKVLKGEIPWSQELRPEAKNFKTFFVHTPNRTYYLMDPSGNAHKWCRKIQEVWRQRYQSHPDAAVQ

[15] = molecular target: Calcium/calmodulin-dependent protein kinase type II subunit gamma (Homo sapiens) (UniProt Q13555)
[16] = molecular target: Serine/threonine-protein kinase Chk2 (Homo sapiens, UniProt O96017)
[17] = molecular target: T4, Lymphokine-activated killer T-cell-originated protein kinase (Homo sapiens) (UniProt Q96KB5)
T4 sequence (whole entry): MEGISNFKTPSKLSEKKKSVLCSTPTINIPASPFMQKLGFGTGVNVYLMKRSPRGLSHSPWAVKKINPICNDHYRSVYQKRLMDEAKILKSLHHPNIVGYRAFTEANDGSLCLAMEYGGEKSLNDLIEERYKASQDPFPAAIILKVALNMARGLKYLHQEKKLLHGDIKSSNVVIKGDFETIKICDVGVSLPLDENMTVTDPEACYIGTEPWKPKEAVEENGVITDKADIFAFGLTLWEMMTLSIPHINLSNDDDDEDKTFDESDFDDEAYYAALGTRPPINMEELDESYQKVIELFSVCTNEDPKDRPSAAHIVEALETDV

[18] = molecular target: Mitogen-activated protein kinase 11 (Homo sapiens, UniProt Q15759)

Serine/threonine-protein kinase RIO2 (Homo sapiens), sequence (Q9BVS4 whole entry, looked up): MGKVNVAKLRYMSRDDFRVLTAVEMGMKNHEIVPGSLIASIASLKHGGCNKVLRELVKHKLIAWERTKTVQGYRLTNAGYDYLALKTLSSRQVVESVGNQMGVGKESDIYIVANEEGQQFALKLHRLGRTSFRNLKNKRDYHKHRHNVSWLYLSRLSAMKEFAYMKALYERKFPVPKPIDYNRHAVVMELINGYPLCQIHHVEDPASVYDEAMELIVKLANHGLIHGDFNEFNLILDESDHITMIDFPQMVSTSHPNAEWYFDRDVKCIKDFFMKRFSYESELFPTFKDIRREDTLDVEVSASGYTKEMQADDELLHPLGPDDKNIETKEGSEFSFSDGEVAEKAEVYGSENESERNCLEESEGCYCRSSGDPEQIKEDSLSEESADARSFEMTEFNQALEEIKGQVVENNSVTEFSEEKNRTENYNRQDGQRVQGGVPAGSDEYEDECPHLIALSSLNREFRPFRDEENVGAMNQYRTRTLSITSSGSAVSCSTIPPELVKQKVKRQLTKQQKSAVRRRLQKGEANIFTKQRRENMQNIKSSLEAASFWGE
Serine/threonine-protein kinase 16 (Homo sapiens), sequence (O75716 whole entry): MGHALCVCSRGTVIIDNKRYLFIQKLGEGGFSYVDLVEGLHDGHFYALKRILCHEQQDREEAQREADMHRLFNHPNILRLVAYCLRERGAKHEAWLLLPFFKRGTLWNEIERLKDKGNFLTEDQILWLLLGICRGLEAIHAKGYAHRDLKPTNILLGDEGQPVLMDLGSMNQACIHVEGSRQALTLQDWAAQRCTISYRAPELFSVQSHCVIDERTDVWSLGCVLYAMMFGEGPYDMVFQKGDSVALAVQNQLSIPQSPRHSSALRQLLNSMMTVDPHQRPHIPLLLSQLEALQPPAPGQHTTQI
Ribosomal protein S6 kinase alpha-3 (Homo sapiens), sequence (P51812 whole entry): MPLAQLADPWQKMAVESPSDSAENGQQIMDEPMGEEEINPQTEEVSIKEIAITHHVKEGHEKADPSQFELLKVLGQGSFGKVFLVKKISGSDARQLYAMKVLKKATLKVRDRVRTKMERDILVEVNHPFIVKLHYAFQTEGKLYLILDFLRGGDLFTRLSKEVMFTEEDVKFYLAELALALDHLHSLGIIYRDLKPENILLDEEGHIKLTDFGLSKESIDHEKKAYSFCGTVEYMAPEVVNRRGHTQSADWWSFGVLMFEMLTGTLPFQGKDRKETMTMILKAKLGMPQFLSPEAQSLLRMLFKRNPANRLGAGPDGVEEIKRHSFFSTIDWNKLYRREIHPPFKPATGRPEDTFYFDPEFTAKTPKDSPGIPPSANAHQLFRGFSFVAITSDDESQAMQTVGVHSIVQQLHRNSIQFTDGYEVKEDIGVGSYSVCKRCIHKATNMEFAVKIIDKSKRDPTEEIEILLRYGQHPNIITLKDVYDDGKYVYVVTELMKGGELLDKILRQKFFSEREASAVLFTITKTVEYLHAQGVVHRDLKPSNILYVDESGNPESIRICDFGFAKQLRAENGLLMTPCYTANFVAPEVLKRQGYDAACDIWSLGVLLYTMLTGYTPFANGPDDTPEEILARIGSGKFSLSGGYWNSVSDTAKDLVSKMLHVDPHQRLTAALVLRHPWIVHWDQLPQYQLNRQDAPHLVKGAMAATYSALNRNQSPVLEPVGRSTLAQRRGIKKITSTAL
TRAF2 and NCK-interacting protein kinase (Homo sapiens), sequence (Q9UKE5 whole entry, looked up): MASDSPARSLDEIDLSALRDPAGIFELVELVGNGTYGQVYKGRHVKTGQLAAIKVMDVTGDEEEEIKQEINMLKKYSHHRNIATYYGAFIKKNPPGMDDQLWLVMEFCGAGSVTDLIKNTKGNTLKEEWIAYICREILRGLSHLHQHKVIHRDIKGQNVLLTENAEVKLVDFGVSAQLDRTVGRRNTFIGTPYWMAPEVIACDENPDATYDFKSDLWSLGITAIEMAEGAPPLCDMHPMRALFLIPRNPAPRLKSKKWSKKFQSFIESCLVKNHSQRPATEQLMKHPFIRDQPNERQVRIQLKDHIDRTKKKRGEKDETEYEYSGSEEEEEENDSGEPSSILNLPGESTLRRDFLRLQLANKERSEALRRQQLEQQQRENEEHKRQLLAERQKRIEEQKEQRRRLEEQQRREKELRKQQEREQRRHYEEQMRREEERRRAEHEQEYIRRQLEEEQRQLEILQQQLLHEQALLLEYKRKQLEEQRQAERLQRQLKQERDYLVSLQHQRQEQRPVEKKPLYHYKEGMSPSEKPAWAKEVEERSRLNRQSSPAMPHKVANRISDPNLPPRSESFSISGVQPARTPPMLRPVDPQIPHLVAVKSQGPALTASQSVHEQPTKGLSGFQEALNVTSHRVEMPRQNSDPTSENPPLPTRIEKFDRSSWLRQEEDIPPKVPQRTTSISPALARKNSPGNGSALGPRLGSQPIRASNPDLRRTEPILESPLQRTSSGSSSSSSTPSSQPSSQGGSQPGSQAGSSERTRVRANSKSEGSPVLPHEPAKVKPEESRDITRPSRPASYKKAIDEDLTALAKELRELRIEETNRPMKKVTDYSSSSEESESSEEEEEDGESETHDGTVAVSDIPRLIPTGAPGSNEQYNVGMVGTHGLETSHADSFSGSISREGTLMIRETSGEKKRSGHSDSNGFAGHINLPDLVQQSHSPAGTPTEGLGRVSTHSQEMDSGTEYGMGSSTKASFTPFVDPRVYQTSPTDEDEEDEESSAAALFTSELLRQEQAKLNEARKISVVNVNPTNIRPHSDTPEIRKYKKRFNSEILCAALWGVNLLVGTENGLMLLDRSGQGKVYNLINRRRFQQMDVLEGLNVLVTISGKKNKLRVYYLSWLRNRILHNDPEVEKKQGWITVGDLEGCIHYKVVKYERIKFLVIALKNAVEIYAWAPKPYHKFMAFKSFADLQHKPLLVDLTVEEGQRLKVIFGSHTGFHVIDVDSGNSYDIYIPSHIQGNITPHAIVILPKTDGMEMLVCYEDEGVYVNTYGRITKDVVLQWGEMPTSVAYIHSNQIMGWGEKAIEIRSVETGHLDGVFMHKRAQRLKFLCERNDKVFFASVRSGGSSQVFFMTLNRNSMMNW
Serine/threonine-protein kinase 25 (Homo sapiens), sequence (O00506 whole entry, looked up): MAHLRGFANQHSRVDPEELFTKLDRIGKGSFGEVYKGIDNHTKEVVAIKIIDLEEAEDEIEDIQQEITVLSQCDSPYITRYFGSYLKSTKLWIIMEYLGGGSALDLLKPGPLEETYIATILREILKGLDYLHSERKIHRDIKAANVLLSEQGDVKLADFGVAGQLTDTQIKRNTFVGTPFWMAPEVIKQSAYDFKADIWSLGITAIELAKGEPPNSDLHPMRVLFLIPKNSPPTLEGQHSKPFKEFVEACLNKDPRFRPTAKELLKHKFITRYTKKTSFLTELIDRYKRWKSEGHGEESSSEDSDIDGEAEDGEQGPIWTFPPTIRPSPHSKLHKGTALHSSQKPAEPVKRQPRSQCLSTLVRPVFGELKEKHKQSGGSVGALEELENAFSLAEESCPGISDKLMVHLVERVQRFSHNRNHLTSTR
Serine/threonine-protein kinase PLK1 (Homo sapiens), sequence (P53350 whole entry): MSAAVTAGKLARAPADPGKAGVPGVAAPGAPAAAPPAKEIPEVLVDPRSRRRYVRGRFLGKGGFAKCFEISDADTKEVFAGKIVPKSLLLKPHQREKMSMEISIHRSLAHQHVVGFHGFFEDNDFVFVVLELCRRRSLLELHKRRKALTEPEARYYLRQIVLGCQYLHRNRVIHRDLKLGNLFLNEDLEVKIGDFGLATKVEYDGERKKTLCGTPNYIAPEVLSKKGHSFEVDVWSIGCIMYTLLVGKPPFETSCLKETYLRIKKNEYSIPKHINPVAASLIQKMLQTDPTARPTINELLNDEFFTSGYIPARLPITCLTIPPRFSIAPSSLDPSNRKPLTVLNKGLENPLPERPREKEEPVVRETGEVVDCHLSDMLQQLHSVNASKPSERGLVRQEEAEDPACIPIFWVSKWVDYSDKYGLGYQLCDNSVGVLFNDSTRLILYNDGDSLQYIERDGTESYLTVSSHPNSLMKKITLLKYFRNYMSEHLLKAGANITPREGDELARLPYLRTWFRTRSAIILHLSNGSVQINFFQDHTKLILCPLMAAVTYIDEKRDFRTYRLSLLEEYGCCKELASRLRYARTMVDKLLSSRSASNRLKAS
Calcium/calmodulin-dependent protein kinase type 1G (Homo sapiens), sequence (Q96NX5 whole entry): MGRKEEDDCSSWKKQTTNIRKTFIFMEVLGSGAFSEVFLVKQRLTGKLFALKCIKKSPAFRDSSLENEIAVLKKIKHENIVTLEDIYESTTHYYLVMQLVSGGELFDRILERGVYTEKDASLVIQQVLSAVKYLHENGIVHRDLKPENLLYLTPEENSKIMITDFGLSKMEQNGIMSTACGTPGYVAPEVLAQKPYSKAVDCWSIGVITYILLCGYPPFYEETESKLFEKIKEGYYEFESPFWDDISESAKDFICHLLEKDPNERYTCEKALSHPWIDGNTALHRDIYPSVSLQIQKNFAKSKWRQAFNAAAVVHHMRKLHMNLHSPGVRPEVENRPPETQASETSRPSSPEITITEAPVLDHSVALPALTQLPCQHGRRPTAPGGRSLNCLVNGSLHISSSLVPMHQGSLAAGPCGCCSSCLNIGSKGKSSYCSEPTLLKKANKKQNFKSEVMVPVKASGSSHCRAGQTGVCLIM
Serine/threonine-protein kinase pim-2, sequence (Q9P1W9 whole entry, looked up): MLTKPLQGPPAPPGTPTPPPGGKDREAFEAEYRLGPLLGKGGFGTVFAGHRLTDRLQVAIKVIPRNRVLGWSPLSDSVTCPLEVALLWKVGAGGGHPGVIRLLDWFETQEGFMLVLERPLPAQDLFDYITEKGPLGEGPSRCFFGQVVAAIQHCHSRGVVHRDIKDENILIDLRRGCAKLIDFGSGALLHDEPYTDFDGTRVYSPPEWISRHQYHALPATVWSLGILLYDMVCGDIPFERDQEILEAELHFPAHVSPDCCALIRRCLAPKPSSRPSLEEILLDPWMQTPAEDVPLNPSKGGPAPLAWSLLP

Compound: C/C(O)=C(\C#N)C(=O)Nc1cc(Br)ccc1Br
- ΔTm [1]: 0.6 °C
- ΔTm [2]: -0.1 °C
- ΔTm [3]: 0.5 °C
- ΔTm [4]: -0.1 °C
- ΔTm [5]: 3.8 °C
- ΔTm [6]: 1.3 °C
- ΔTm [7]: -0.1 °C
- ΔTm [8]: 1.9 °C
- ΔTm [9]: 0.1 °C
- ΔTm [10]: 0.4 °C
- ΔTm [11]: 0 °C
- ΔTm [12]: 1.5 °C
- ΔTm [13]: 0.1 °C
- ΔTm [14]: -3.7 °C
- ΔTm [15]: -0.1 °C
- ΔTm [16]: 0.5 °C
- ΔTm [17]: 0.8 °C
- ΔTm [18]: 0.3 °C

Compound: COc1cc(/C=C/C(=O)CC(=O)/C=C/c2ccc(O)c(OC)c2)ccc1O [CURCUMIN]
- ΔTm [1]: 3.4 °C
- ΔTm [2]: 4.4 °C
- ΔTm [3]: 0.1 °C
- ΔTm [4]: 5.9 °C
- ΔTm [5]: 6.9 °C
- ΔTm [6]: 2 °C
- ΔTm [7]: 1.3 °C
- ΔTm [8]: 2.9 °C
- ΔTm [9]: 2.1 °C
- ΔTm [10]: 0.9 °C
- ΔTm [11]: 1.5 °C
- ΔTm [12]: 2.8 °C
- ΔTm [13]: -0.1 °C
- ΔTm [14]: 0.2 °C
- ΔTm [15]: -0.2 °C
- ΔTm [16]: 5.4 °C
- ΔTm [17]: 0.7 °C
- ΔTm [18]: 3.7 °C

Compound: COc1ccc(CNc2nc(N(CCO)CCO)nc3c2ncn3C(C)C)cc1
- ΔTm [1]: 1.3 °C
- ΔTm [2]: 1.5 °C
- ΔTm [3]: -0.3 °C
- ΔTm [4]: 0.5 °C
- ΔTm [5]: 0.2 °C
- ΔTm [6]: 0.9 °C
- ΔTm [7]: 0.6 °C
- ΔTm [8]: 0.3 °C
- ΔTm [9]: 0.4 °C
- ΔTm [10]: 2.3 °C
- ΔTm [11]: -0.1 °C
- ΔTm [12]: 0.3 °C
- ΔTm [13]: 0 °C
- ΔTm [14]: 0 °C
- ΔTm [15]: 0.3 °C
- ΔTm [16]: 0.9 °C
- ΔTm [17]: 0.7 °C
- ΔTm [18]: 1.2 °C

Compound: CCOC(=O)c1c(C)[nH]c(/C=C2\C(=O)Nc3ccccc32)c1C
- ΔTm [1]: 3 °C
- ΔTm [2]: 0.6 °C
- ΔTm [3]: 0.4 °C
- ΔTm [4]: 0.4 °C
- ΔTm [5]: 0.3 °C
- ΔTm [6]: -0.6 °C
- ΔTm [7]: -1.3 °C
- ΔTm [8]: 0.1 °C
- ΔTm [9]: -0.4 °C
- ΔTm [10]: 0.6 °C
- ΔTm [11]: 0.5 °C
- ΔTm [12]: -8.9 °C
- ΔTm [13]: -0.6 °C
- ΔTm [14]: 0.2 °C
- ΔTm [15]: -0.1 °C
- ΔTm [16]: 0.7 °C
- ΔTm [17]: 0.3 °C
- ΔTm [18]: -0.4 °C

Compound: NC1=N/C(=C2/CCNC(=O)c3[nH]ccc32)C(=O)N1 [DEBROMOHYMENIALDISINE]
- ΔTm [1]: 2.6 °C
- ΔTm [2]: 1.7 °C
- ΔTm [3]: 0.1 °C
- ΔTm [4]: 1.6 °C
- ΔTm [5]: 2.4 °C
- ΔTm [6]: 2.4 °C
- ΔTm [7]: 0.2 °C
- ΔTm [8]: 2.5 °C
- ΔTm [9]: 0 °C
- ΔTm [10]: 0.4 °C
- ΔTm [11]: 2.3 °C
- ΔTm [12]: -0.3 °C
- ΔTm [13]: 0.1 °C
- ΔTm [14]: 0 °C
- ΔTm [15]: 0.3 °C
- ΔTm [16]: 1.7 °C
- ΔTm [17]: -0.4 °C
- ΔTm [18]: -0.4 °C
